In one series the test system is Caco-2 cells. Put plainly: Drug transport across human Caco-2 cells. To be noted: pH 7.2, 37° C.; for PEAB: apical-to-basal; for PEBA: basal-to-apical. The series is classed as in vitro ADME. From the text: (§1) Assay for Determination of Drug Transport Across Human Caco-2 Cells
(§2) The assay provides information on the potential of a compound to pass the cell membrane, on the extent of oral absorption as well as on whether the compound is actively transported by uptake and/or efflux transporters. For the measurement of permeability across polarized, confluent human cancer colon carcinoma cells 2 (Caco-2) cell monolayers grown on permeable filter supports are used as the in vitro absorption model.
(§3) Apparent permeability coefficients (PE) of the compounds across the Caco-2 monolayers are measured (pH 7.2, 37° C.) in apical-to-basal (AB) (absorptive) and basal-to-apical (BA) (secretory) transport direction. AB permeability (PEAB) represents drug absorption from the intestine into the blood and BA permeability (PEBA) drug secretion from the blood back into the intestine via both passive permeability as well as active transport mechanisms mediated by efflux and uptake transporters that are expressed on the Caco-2 cells. The compounds are assigned to permeability/absorption classes by comparison of the AB permeabilities with the AB permeabilities of reference compounds with known in vitro permeability and oral absorption in the human. Identical or similar permeabilities in both transport directions indicate passive permeation, vectorial permeability points to additional active transport mechanisms. […] Active transport is concentration-dependently saturable.
(§4) Caco-2 cells (1-2*10^5 cells/cm^2 area) are seeded on filter inserts (Costar transwell polycarbonate or PET filters, 0.4 μm pore size) and cultured (DMEM) for 10 to 25 days. Compounds are dissolved in appropriate solvent (like DMSO, 1-20 mM stock solutions). Stock solutions are diluted with HTP-4 buffer (128.13 mM NaCl, 5.36 mM KCl, 1 mM MgSO4, 1.8 mM CaCl2, 4.17 mM NaHCO3, 1.19 mM Na2HPO4x7H2O, 0.41 mM NaH2PO4xH2O, 15 mM HEPES, 20 mM glucose, pH 7.2) to prepare the transport solutions (typically 10 μM compound, final DMSO<=0.5%). The transport solution (TL) is applied to the apical or basolateral donor side for measuring A-B or B-A permeability (3 filter replicates), respectively. The receiver side contains HTP-4 buffer supplemented with 2% BSA. Samples are collected at the start and end of experiment from the donor and at various time intervals for up to 2 hours also from the receiver side for concentration measurement by LC-MS/MS or scintillation counting. Sampled receiver volumes are replaced with fresh receiver solution.
(§5) The apparent permeability coefficients (PEAB and PEBA) of selected compounds in the Caco-2 drug transport assay described above are listed in Table 5.
A general note: Caco-2 cells form a polarised layer with tight junctions and transporters.

In a further series the target is neutrophil elastase (Homo sapiens (Human), UniProt P08246). Put plainly: Human Neutrophil Elastase Assay. The series is classed as biochemical. The following applies: substrate MeOSuc-Ala-Ala-Pro-Val-AMC.
neutrophil elastase, sequence (P08246 30-247): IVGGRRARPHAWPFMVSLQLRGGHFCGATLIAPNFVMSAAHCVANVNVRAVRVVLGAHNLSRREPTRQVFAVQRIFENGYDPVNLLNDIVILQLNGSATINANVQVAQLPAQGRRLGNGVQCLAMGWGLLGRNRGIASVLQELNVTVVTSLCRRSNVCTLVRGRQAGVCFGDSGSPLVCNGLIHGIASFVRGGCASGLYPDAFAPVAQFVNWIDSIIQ
Series [1] is described as follows: Drug transport across human Caco-2 cells. Type of series: in vitro ADME. The following applies: human, Caco-2, pH 7.2, 37° C.; for Papp A→B at 10 μM: apical-to-basal, read-out: PEAB; for Papp B→A at 10 μM: basal-to-apical, read-out: PEBA.
Source text: as §1, §2, §3, §4, §5

Another series concerns the target cytochrome P450 2C8 (Homo sapiens (Human), UniProt P10632). Put plainly: Cytochrome P450 2C8 inhibition. Type of series: in vitro ADME. The following applies: human liver microsomes, Amodiaquine deethylation; read-out: IC50 CYP2C8 inhibition. The procedure: Assay for Determination of Cytochrome P450 2C8 Inhibition
(§6) All assays are carried out on a robotic system in 96 well plates. The final incubation volume contains TRIS buffer (0.1 M), MgCl2 (5 mM), human liver microsomes (0.05 mg/ml), Amodiaquine (1 μM) and the test compound at five different concentrations or no compound (high control) in duplicate (e.g. highest concentration 10-50 μM with subsequent serial 1:4 dilutions). Following a short preincubation period, reactions are started with the cofactor (NADPH, 1 mM) and stopped by cooling the incubation down to 8° C. and subsequently by addition of one volume of acetonitrile. An internal standard solution—usually the stable isotope of the formed metabolite—is added after quenching of incubations. Peak area analyte (=metabolite formed) and internal standard is determined by LC-MS/MS. The resulting peak area ratio analyte to internal standard in these incubations is compared to a control activity containing no test compound.
(§7) If the inhibition of the reaction is already >50% at the lowest concentration of the test compound, the IC50 is assigned “<lowest concentration tested” (usually <0.4 μM). If the inhibition of the reaction is still <50% at the highest concentration of the test compound, the IC50 is assigned “>highest concentration tested” (usually >50 μM).
A general note: Liver microsomes are a subcellular fraction often used to study metabolism.

The target of series [2] is hERG (human ether-a-go-go-related gene) potassium channel (Homo sapiens (Human), UniProt Q12809). Put plainly: hERG inhibition patch clamp assay. Type of series: cell-based. The text has this: Calculations: Fold induction=(Enzyme mRNA Compound)/(Enzyme mRNA Solvent Control) Inducer Potency=(Fold Compound)/(Fold Rifampicin)*100 Assay for Determination of hERG Inhibition
hERG (human ether-a-go-go-related gene) potassium channel, sequence (Q12809 whole entry): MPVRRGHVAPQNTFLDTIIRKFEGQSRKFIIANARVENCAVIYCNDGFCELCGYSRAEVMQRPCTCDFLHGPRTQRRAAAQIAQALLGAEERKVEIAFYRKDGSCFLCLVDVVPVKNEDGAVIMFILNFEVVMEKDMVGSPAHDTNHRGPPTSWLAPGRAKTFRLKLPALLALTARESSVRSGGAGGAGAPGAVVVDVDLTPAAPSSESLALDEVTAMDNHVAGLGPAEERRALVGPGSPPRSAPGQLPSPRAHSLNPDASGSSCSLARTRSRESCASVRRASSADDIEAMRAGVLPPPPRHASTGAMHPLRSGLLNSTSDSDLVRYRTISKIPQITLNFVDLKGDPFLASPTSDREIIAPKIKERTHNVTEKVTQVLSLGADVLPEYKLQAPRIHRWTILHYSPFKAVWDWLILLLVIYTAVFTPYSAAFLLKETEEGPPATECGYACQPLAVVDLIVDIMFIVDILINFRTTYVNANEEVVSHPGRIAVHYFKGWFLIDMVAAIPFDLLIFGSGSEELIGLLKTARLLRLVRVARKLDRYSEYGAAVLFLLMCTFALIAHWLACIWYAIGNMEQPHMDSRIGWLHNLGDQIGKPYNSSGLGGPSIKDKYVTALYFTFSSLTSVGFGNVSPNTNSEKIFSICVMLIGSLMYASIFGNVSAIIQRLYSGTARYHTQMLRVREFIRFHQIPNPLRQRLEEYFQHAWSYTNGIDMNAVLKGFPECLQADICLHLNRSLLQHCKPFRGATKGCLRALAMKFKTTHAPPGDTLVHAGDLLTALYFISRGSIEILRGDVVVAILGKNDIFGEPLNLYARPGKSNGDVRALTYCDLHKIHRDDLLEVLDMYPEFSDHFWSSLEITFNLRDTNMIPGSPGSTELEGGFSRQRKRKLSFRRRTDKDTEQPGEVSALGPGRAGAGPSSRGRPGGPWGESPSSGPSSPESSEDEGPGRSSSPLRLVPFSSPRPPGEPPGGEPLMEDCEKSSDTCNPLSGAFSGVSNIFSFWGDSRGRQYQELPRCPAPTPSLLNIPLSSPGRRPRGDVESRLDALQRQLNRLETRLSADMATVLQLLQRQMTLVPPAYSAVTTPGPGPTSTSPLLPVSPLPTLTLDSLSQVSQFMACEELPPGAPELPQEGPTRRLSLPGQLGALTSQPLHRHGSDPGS
The inhibition of the hERG (human ether-a-go-go-related gene) potassium channel can be determined as described in Rast, G., & Guth, B. D., Journal of Pharmacological and Toxicological Methods (2014), http://dx.doi.org/10.1016/j.vasen.2014.08.001.
(The hERG channel carries a current that helps repolarise heart muscle cells.)

The next series deals with cytochrome P450 2C19 (Homo sapiens (Human), UniProt P33261). Put plainly: Cytochrome P450 2C19 inhibition. The following applies: human liver microsomes, Mephenytoin hydroxylation; read-out: IC50 CYP2C19 inhibition. The series is classed as in vitro ADME. The procedure:
Assay for Determination of Cytochrome P450 2C19 Inhibition
as §6, with “(0.5” for “(0.05”, “(S)-Mephenytoin (70” for “Amodiaquine (1”
as §7

Molecules are shown by their SMILES.

The values below come from patent US9290457B2, “Substituted dihydropyrimidinones and their use as inhibitors of neutrophil elastase activity” (Boehringer Ingelheim International GmbH, priority 2014, dated 2016).

cytochrome P450 2C19, sequence (P33261 whole entry): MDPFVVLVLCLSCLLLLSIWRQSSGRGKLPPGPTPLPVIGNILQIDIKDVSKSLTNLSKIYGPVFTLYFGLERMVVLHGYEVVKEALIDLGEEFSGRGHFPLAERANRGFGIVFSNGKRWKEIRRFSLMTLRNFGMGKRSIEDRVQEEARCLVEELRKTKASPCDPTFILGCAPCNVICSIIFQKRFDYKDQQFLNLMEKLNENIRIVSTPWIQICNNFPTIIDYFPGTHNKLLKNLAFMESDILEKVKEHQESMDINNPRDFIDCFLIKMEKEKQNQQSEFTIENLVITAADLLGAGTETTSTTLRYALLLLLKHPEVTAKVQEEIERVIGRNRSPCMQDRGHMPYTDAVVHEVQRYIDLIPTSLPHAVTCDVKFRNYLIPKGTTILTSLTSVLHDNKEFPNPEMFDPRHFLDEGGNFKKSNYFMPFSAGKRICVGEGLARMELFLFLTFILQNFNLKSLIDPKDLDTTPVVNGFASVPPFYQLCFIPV
cytochrome P450 2C8, sequence (P10632 whole entry): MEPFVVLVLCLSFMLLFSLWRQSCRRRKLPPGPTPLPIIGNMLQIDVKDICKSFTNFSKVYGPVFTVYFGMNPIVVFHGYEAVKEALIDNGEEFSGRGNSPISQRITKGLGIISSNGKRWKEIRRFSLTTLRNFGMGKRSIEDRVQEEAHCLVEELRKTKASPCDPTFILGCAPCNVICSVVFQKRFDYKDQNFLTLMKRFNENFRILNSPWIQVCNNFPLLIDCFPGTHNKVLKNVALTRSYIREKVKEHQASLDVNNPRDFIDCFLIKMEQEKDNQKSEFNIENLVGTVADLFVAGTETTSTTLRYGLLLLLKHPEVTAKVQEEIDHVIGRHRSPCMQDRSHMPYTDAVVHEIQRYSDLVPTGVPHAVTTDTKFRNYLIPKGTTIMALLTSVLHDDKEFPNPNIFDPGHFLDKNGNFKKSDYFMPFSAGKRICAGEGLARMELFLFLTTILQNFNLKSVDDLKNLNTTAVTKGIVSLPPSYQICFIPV

The term IC50 denotes the concentration at which inhibition is half-maximal. In the series with Caco-2 cells, `CC(=O)C1=C(C)N(c2cccc(C(F)(F)F)c2)C(=O)N(C)C1c1ccc(C#N)cc1C(=O)NCC#N` (stereo not shown) [Example 1.6] yielded a PEAB of 10 ×10⁻⁶ cm/s and a PEBA of 81 ×10⁻⁶ cm/s. On neutrophil elastase, this molecule gave an IC50 of under 1 nM.

Regarding `CC(=O)C1=C(C)N(c2cccc(C(F)(F)F)c2)C(=O)N(C)C1c1ccc(C#N)cc1C(=O)NC1CC1` (stereo not shown) [Example 1.8], in the series on Caco-2 cells, the PEAB came out at 44 ×10⁻⁶ cm/s and the PEBA came to 74 ×10⁻⁶ cm/s. The molecule further returned an IC50 on neutrophil elastase of under 1 nM.

In the series with Caco-2 cells, `CC(=O)C1=C(C)N(c2cccc(C(F)(F)F)c2)C(=O)N(C)C1c1ccc(C#N)cc1C(=O)NCCF` (stereo not shown) [Example 1.10] gave a PEAB of 39 ×10⁻⁶ cm/s and a PEBA of 78 ×10⁻⁶ cm/s. The same molecule registered an IC50 at neutrophil elastase of under 1 nM.

For `CC(=O)C1=C(C)N(c2cccc(C(F)(F)F)c2)C(=O)N(C)C1c1ccc(C#N)cc1C(=O)NCC(C)(C)O` (stereo not shown) [Example 1.22], in series [1], the Papp A→B at 10 μM came out at 7.8 ×10⁻⁶ cm/s and the Papp B→A at 10 μM is 81 ×10⁻⁶ cm/s. The molecule also registered an IC50 against neutrophil elastase of 1.4 nM.

`CC(=O)C1=C(C)N(c2cccc(C(F)(F)F)c2)C(=O)N(C)C1c1ccc(C#N)cc1C(=O)N1CCn2ncnc2C1` (stereo not shown) [Example 1.73]: in series [1], the Papp A→B at 10 μM was 5.1 ×10⁻⁶ cm/s and the Papp B→A at 10 μM stood at 92 ×10⁻⁶ cm/s. At neutrophil elastase, this molecule yielded an IC50 of under 1 nM.

Consider `CNC(=O)c1cc(C#N)ccc1[C@@H]1C(C(C)=O)=C(C)N(c2cccc(C(F)(F)F)c2)C(=O)N1C` [Example 13.1], for which the IC50 at cytochrome P450 2C8 was over 50000 nM; in series [2] it was over 30000 nM; on neutrophil elastase it was under 1 nM; on cytochrome P450 2C19 it was over 50000 nM. Further, the hERG inhibition entry in series [2] (@ 10 μM) was “(7% @ 10 μM)”. The molecule further displayed a PEAB in the series with Caco-2 cells of 33 ×10⁻⁶ cm/s. The PEBA in the series on Caco-2 cells was 80 ×10⁻⁶ cm/s.

In the case of `CC(=O)C1=C(C)N(c2cccc(C(F)(F)F)c2)C(=O)N(C)[C@@H]1c1ccc(C#N)cc1-c1ccc(=O)n(C)c1` [Example 16, 4-[(R)-5-Acetyl-3,6-dimethyl-2-oxo-1-(3-trifluoromethyl-phenyl)-1,2,3,4-tetrahydro-pyrimidin-4-yl]-3-(1-methyl-6-oxo-1,6-dihydro-pyridin-3-yl)-benzonitrile], the IC50 at cytochrome P450 2C8 is over 50000 nM; in series [2], over 30000 nM; at neutrophil elastase it was under 1 nM; on cytochrome P450 2C19, over 50000 nM. The Papp A→B at 10 μM in series [1] was 12 ×10⁻⁶ cm/s. Moreover, in series [1], the Papp B→A at 10 μM is 120 ×10⁻⁶ cm/s.

For `CC(=O)C1=C(C)N(c2cccc(C(F)(F)F)c2)C(=O)N(C)[C@@H]1c1ccc(C#N)cc1-c1ccn(C)c(=O)c1` [Example 17, 4-[(R)-5-Acetyl-3,6-dimethyl-2-oxo-1-(3-trifluoromethyl-phenyl)-1,2,3,4-tetrahydro-pyrimidin-4-yl]-3-(1-methyl-2-oxo-1,2-dihydro-pyridin-4-yl)-benzonitrile], in series [1], the Papp A→B at 10 μM was found to be 11 ×10⁻⁶ cm/s and the Papp B→A at 10 μM stood at 114 ×10⁻⁶ cm/s. Besides, at neutrophil elastase, the IC50 was under 1 nM.
